Consider 20 molecules from PMC12320831, “Synthesis and Biological Evaluation of New Chalcogen Semicarbazone (S, Se) and Their Azole Derivatives against Chagas Disease” (Journal of Medicinal Chemistry, 2024).

The term viability denotes a read-out of living cells in per cent, often relative to untreated cells. A high value points to better survival. Broadly, the CC50 is the concentration that lowers cell viability or growth by half.

For one series, the target named is T1, recombinant Cz (cruzain) (Trypanosoma cruzi, UniProt P25779).
T1 construct: Cz was expressed and purified as described in da Silva et al; made in house
T1 sequence (P25779 123-337 limits assumed): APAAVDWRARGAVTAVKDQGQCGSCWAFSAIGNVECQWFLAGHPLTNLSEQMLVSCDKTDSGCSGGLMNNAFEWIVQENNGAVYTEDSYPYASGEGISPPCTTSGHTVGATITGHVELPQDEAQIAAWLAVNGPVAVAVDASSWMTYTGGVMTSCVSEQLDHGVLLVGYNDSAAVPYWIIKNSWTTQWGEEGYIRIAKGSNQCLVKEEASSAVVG
As to the kind of experiment: biochemical. The settings on record: read-out: Cz inhibition (%), 10 µM. As for the experimental part:
The screening assay was performed using 1 nM of Cz diluted in 0.1 M sodium acetate pH 5.5, 1 mM dithiothreitol (DTT), and 0.01% Triton X-100. Cz was expressed and purified as described in da Silva et al. The reaction starts after 10 min incubating the enzyme with the compounds (10 μM), when adding 2.5 μM of the substrate Z-FR-AMC final concentration (Z-Phe-Arg-amidomethylcoumarin, Sigma-Aldrich, C9521) diluted in the same assay buffer (final volume of 30 μL). The experiment was performed for 10 min. […] The DRC was performed with at least nine different concentrations of the inhibitors, diluted by 2-fold serial dilution, ranging from […] to 10 μM.
All experiments were accomplished in a 384-well black microplate, using a Synergy HTX (Biotek) plate reader at 25 °C with absorption/emission wavelengths of 360/460 nm. All assays were performed in triplicate wells and DMSO was used as a vehicle control. Enzymatic activity was measured and normalized to DMSO controls, and the inhibitor E-64 (10 μM) was used as a positive control for all assays. All experiments were performed in triplicates, with at least two independent assays (n = 6 data points). IC50 values were determined through nonlinear regression. Obtained data were treated and analyzed using GraphPad Prism 9.0 (GraphPad Software, La Jolla, California).

In another series the test system is T. cruzi CAI/72 strain. As to the kind of experiment: Antiparasitic activity in C2C12 cells infected with T. cruzi CAI/72 (image-based assay). The class given is cell-based. Conditions: Trypanosoma cruzi; for EC50: mean of three experiments in triplicate (n = 9) ± SD. As for the experimental part: Antiparasitic activity and cytotoxicity of compounds were determined as described before (da Silva et al., Boudreau et al.). Mouse myoblasts cell line C2C12 (ATCCCRL-1772), were maintained in high glucose (4.5 g/L glucose) Dulbecco’s modified Eagle’s medium (DMEM Gibco), supplemented with 1% penicillin–streptomycin 10,000 U/mL (Gibco) and 5% fetal bovine serum (FBS, Sigma-Aldrich) at 37 °C with 5% CO2. parasites (CAI/72 strain, DTU TcI) were maintained by weekly coinfection with C2C12 cells. For all activity assays, C2C12 cells were infected at a 10:1 parasite-to-cell ratio with culture-derived trypomastigotes, which were harvested from the supernatant of infected C2C12 cells. After adding compounds to 384-well black clear-bottom plates (Greiner cat. no. 781091), trypomastigotes (7000 parasites/well) and C2C12 cells (700 cells/well) were seeded in a total volume of 50 μL of DMEM per well in the 384-well plates. Compounds were first tested at 10 μM. […] Plates were imaged with the automated ImageXpress MicroXL microscope (Molecular Devices) and analyzed by MetaXpress software (Molecular Devices) using a custom module optimized for this assay. Infection levels (parasites per host cell) were normalized to the positive control (40 μM BNZ) and negative control (DMSO). Antiparasitic activity (EC50) ± standard deviation (SD) and host cell cytotoxicity (C2C12 viability) values were determined from the DRC using Prism software (GraphPad Software, La Jolla, CA). Every assay has three biological replicates, each in triplicates (n = 9 data points).

Series [1] can be described thus: Host cell cytotoxicity (C2C12 viability). Conditions: mouse; for viability at 48 h, 10 µM: < 50% viability considered cytotoxic; for CC50 at 48 h: viability calculated at 10 μM. The class given is cell-based, Mouse. As for the experimental part: Antiparasitic activity and cytotoxicity of compounds were determined as described before (da Silva et al., Boudreau et al.). Mouse myoblasts cell line C2C12 (ATCCCRL-1772), were maintained in high glucose (4.5 g/L glucose) Dulbecco’s modified Eagle’s medium (DMEM Gibco), supplemented with 1% penicillin–streptomycin 10,000 U/mL (Gibco) and 5% fetal bovine serum (FBS, Sigma-Aldrich) at 37 °C with 5% CO2. parasites (CAI/72 strain, DTU TcI) were maintained by weekly coinfection with C2C12 cells. For all activity assays, C2C12 cells were infected at a 10:1 parasite-to-cell ratio with culture-derived trypomastigotes, which were harvested from the supernatant of infected C2C12 cells. After adding compounds to 384-well black clear-bottom plates (Greiner cat. no. 781091), trypomastigotes (7000 parasites/well) and C2C12 cells (700 cells/well) were seeded in a total volume of 50 μL of DMEM per well in the 384-well plates. Compounds were first tested at 10 μM. […] After 48 h at 37 °C and 5% CO2, plates were fixed with 4% formaldehyde solution for at least 1 h, washed with 1× PBS, and stained with 5 μg/mL of 4′,6-diamidino-2-phenylindole (DAPI) for at least 1 h prior to reading. Plates were imaged with the automated ImageXpress MicroXL microscope (Molecular Devices) and analyzed by MetaXpress software (Molecular Devices) using a custom module optimized for this assay. Infection levels (parasites per host cell) were normalized to the positive control (40 μM BNZ) and negative control (DMSO). Antiparasitic activity (EC50) ± standard deviation (SD) and host cell cytotoxicity (C2C12 viability) values were determined from the DRC using Prism software (GraphPad Software, La Jolla, CA). Every assay has three biological replicates, each in triplicates (n = 9 data points).

[2] abbreviates: C2C12, read-out: Anti-Tc CAI/72 activity (%).
The mark [3] stands for this setting: 10 µM, C2C12 infected cells, read-out: Anti-Tc CAI/72 activity (%).
Where [4] appears, read: C2C12 myoblast cells infected with trypomastigotes.

Structures are written as SMILES. Structures can show the parent of a compound that is named as a salt. Where two headings read alike, the source gives them in different places.

For the molecule `C/C(=N\Nc1nc(C)c[se]1)c1csc2ccccc12` [Se2o, (E)-2-(2-(1-(Benzo[b]thiophen-3-yl)ethylidene)hydrazineyl)-4-methyl-1,3-selenazole Hydrochloride], the inhibition at 10 µM on recombinant Cz (cruzain) is 101%; in the series with T. cruzi CAI/72 strain (setting [2]), 42.3%. Moreover, the viability at 48 h, 10 µM in series [1] is > 100%.

For `C/C(=N\NC(N)=S)c1ccc([N+](=O)[O-])cc1` [Compound S1c, (E)-2-(1-(4-Nitrophenyl)ethylidene)hydrazine-1-carbothioamide], the figures for the inhibition at 10 µM at recombinant Cz (cruzain) and with T. cruzi CAI/72 strain (setting [3]) were 97.6% and 20.6%, respectively. Further, the viability at 48 h, 10 µM in series [1] (setting [4]) is > 100%.

With `COc1cccc(/C(C)=N/Nc2nc(C)cs2)c1` [Compound S2g, (E)-2-(2-(1-(3-Methoxyphenyl)ethylidene)hydrazineyl)-4-methylthiazole hydrochloride], the figures for the inhibition at 10 µM at recombinant Cz (cruzain) and with T. cruzi CAI/72 strain (setting [3]) were 45.1% and 40.6%, respectively. In addition, in series [1] (setting [4]), the viability at 48 h, 10 µM was > 100%.

Take `COc1ccc(/C(C)=N/Nc2nc(C)cs2)cc1` [Compound S2b, (E)-2-(2-(1-(4-Methoxyphenyl)ethylidene)hydrazineyl)-4-methylthiazole Hydrochloride]: the inhibition at 10 µM on recombinant Cz (cruzain) is 37.5%; in the series on T. cruzi CAI/72 strain (setting [3]), 23.5%. The viability at 48 h, 10 µM in series [1] (setting [4]) is > 100%.

On to `COc1cccc(/C(C)=N/Nc2nc(C)c[se]2)c1` [Se2g, (E)-2-(2-(1-(3-Methoxyphenyl)ethylidene)hydrazineyl)-4-methyl-1,3-selenazole Hydrochloride], for which, at recombinant Cz (cruzain), the inhibition at 10 µM came to 62.9%. For the same molecule, the EC50 in the series with T. cruzi CAI/72 strain (C2C12, 48 h, read-out: EC50 Tc CAI/72, intracellular amastigotes in C2C12 cells, 48 h) worked out at 2.67 ± 1.13 µM. For the same molecule, in the series with T. cruzi CAI/72 strain (setting [2]), the inhibition at 10 µM was 55.1%. Moreover, in series [1], the viability at 48 h, 10 µM is > 100% and the CC50 at 48 h is > 10 µM.

In the case of `C/C(=N\NC(N)=S)c1ccc(C(F)(F)F)cc1` [Compound S1d, (E)-2-(1-(4-(Trifluoromethyl)phenyl)ethylidene)hydrazine-1-carbothioamide], the inhibition at 10 µM is 85.8% on recombinant Cz (cruzain) and 43.8% with T. cruzi CAI/72 strain (setting [3]). The viability at 48 h, 10 µM in series [1] (setting [4]) turned out to be 93.1%.

Turning to `C/C(=N\NC(N)=[Se])c1ccsc1` [Se1l, (E)-2-(1-(Thiophen-3-yl)ethylidene)hydrazine-1-carboselenoamide], the inhibition at 10 µM on recombinant Cz (cruzain) came out at 90.1%; in the series on T. cruzi CAI/72 strain (setting [2]), 30.5%. Further, the viability at 48 h, 10 µM in series [1] is 38.1%.

For the molecule `COc1ccc(/C(C)=N/NC(N)=[Se])cc1` [Se1b, (E)-2-(1-(4-Methoxyphenyl)ethylidene)hydrazine-1-carboselenoamide], the inhibition at 10 µM on recombinant Cz (cruzain) came out at 98.9%; in the series on T. cruzi CAI/72 strain (setting [2]) it was 30%. Also, the viability at 48 h, 10 µM in series [1] turned out to be 40.9%.

Regarding `C/C(=N\Nc1nc(C)c[se]1)c1ccc(F)c(F)c1` [Se2j, (E)-2-(2-(1-(3,4-Difluorophenyl)ethylidene)hydrazineyl)-4-methyl-1,3-selenazole Hydrochloride], the results for the inhibition at 10 µM at recombinant Cz (cruzain) and with T. cruzi CAI/72 strain (setting [2]) were 102% and 18.7%, respectively. The molecule further returned a viability at 48 h, 10 µM in series [1] of 38.3%.

In the case of `C/C(=N\Nc1nc(C)cs1)c1ccc(C)cc1` [Compound S2a, (E)-4-Methyl-2-(2-(1-(4-tolyl)ethylidene)hydrazineyl)thiazole Hydrochloride], the values for the inhibition at 10 µM on recombinant Cz (cruzain) and with T. cruzi CAI/72 strain (setting [3]) were 36.8% and 12.5%, respectively. In addition, the viability at 48 h, 10 µM in series [1] (setting [4]) was > 100%.

Consider `C/C(Cc1cccc(Cl)c1)=N\NC(N)=S` [Compound S1m, (E)-2-(1-(3-Chlorophenyl)propan-2-ylidene)hydrazine-1-carbothioamide], for which the inhibition at 10 µM at recombinant Cz (cruzain) stood at 72.3%. For the same molecule, in the series on T. cruzi CAI/72 strain (setting [3]), the inhibition at 10 µM stood at 69.4%. Further, the EC50 with T. cruzi CAI/72 strain (intracellular amastigotes in C2C12 cells, 48 h, read-out: EC50 Tc CAI/72) was found to be 2.92 ± 0.16 µM. Moreover, in series [1] (setting [4]), the viability at 48 h, 10 µM is > 100% and the CC50 at 48 h was > 10 µM.

On to `COc1cccc(/C(C)=N/N=C(/N)S)c1` [Compound S1g, (E)-2-(1-(3-Methoxyphenyl)ethylidene)hydrazine-1-carbothioamide], for which the results for the inhibition at 10 µM on recombinant Cz (cruzain) and in the series on T. cruzi CAI/72 strain (setting [3]) were 95.3% and 22.3%, respectively. Further, the viability at 48 h, 10 µM in series [1] (setting [4]) is > 100%.

On to `C/C(=N\NC(N)=[Se])c1cc2ccccc2o1` [Se1p, (E)-2-(1-(Benzofuran-2-yl)ethylidene)hydrazine-1-carboselenoamide], for which the values for the inhibition at 10 µM on recombinant Cz (cruzain) and in the series with T. cruzi CAI/72 strain (setting [2]) were 102% and 28.8%, respectively. Moreover, the viability at 48 h, 10 µM in series [1] amounted to 39.4%.

Take `COc1ccc(C/C(C)=N/NC(N)=S)cc1` [Compound S1n, (E)-2-(1-(4-Methoxyphenyl)propan-2-ylidene)hydrazine-1-carbothioamide]: the inhibition at 10 µM at recombinant Cz (cruzain) was 56.2%; in the series on T. cruzi CAI/72 strain (setting [3]), 34.5%. The viability at 48 h, 10 µM in series [1] (setting [4]) is > 100%.

As to `C/C(=N\NC(N)=S)c1ccc(C)cc1` [Compound S1a, (E)-2-(1-(4-Tolyl)ethylidene)hydrazine-1-carbothioamide], the results for the inhibition at 10 µM at recombinant Cz (cruzain) and in the series with T. cruzi CAI/72 strain (setting [3]) were 74.8% and 42.3%, respectively. Further, in series [1], the viability at 48 h, 10 µM was > 100%.

Turning to `C/C(=N\NC(N)=S)c1csc2ccccc12` [Compound S1o, (E)-2-(1-(Benzo[b]thiophen-3-yl)ethylidene)hydrazine-1-carbothioamide], the inhibition at 10 µM stood at 100% at recombinant Cz (cruzain) and 23.1% with T. cruzi CAI/72 strain (setting [3]). In series [1] (setting [4]), the viability at 48 h, 10 µM is > 100%.

As to `C/C(=N\NC(N)=[Se])C12CC3CC(CC(C3)C1)C2` [Se1q, (E)-2-(1-((3r,5r,7r)-Adamantan-1-yl)ethylidene)hydrazine-1-carboselenoamide], the inhibition at 10 µM turned out to be 83.8% at recombinant Cz (cruzain) and 16.2% in the series with T. cruzi CAI/72 strain (setting [2]). Also, the viability at 48 h, 10 µM in series [1] turned out to be 78.6%.

As for `C/C(=N\NC(N)=[Se])c1ccc(C)cc1` [Se1a, (E)-2-(1-(4-Tolyl)ethylidene)hydrazine-1-carboselenoamide], the results for the inhibition at 10 µM at recombinant Cz (cruzain) and in the series on T. cruzi CAI/72 strain (setting [3]) were 98.2% and 21.6%, respectively. This molecule also displayed a viability at 48 h, 10 µM in series [1] of 34.1%.

For `COc1ccc(/C(C)=N/Nc2nc(C)cs2)c(OC)c1` [Compound S2k, (E)-2-(2-(1-(2,4-Dimethoxyphenyl)ethylidene)hydrazineyl)-4-methylthiazole Hydrochloride], the results for the inhibition at 10 µM on recombinant Cz (cruzain) and in the series with T. cruzi CAI/72 strain (setting [3]) were 34.2% and 46%, respectively. Moreover, the viability at 48 h, 10 µM in series [1] (setting [4]) was > 100%.

With `C/C(=N\NC(N)=S)c1ccc(F)c(F)c1` [Compound S1j, (E)-2-(1-(3,4-Difluorophenyl)ethylidene)hydrazine-1-carbothioamide], the inhibition at 10 µM came out at 99.8% at recombinant Cz (cruzain) and 49.9% in the series with T. cruzi CAI/72 strain (setting [3]). In series [1] (setting [4]), the viability at 48 h, 10 µM was > 100%.
